We go through 1 compound from patent publication US20210355138A1, “AMINOTHIAZINIES AND THEIR USE AS BACE1 INHIBITORS” (Eli Lilly and Company, priority 2016, published 2021).

By IC50 is commonly meant the concentration that gives 50% inhibition.

Test [1] has as its target T1, Human BACE1(1-460):Fc (Homo sapiens, UniProt P56817).
T1 construct: made in house; host or cells: HEK293 (transient transfection, conditioned medium)
The experiment in a line: BACE1 FRET Assay. It is filed as biochemical. The settings on record: purified recombinant huBACE1:Fc, FRET substrate based on APP sequence, pH 4.6; mean ± standard deviation of the mean (0.035), n=5. The protocol:
(§1) To assess selectivity of BACE1 over BACE2, the test compound is evaluated in FRET assays using specific substrates for BACE1 and BACE2 as described below. For in vitro enzymatic and cellular assays, the test compound is prepared in DMSO to make up a 10 mM stock solution. The stock solution is serially diluted in DMSO to obtain a ten-point dilution curve with final compound concentrations ranging from 10 μM to 0.05 nM in a 96-well round-bottom plate before conducting the in vitro enzymatic and whole cell assays.
Human BACE1 (accession number: AF190725) and human BACE2 (accession number: AF 204944) are cloned from total brain cDNA by RT-PCR. The nucleotide sequences corresponding to amino acid sequences #1 to 460 are inserted into the cDNA encoding human IgG1 (Fc) polypeptide (Vassar et al., Science, 286, 735-742 (1999)). […]
Conditioned media of HEK293 cells transiently transfected with huBACE1:Fc or huBACE2:Fc cDNA are collected. […] The purity of the final product is assessed by electrophoresis in 4-20% Tris-Glycine SDS-PAGE. […]
Serial dilutions of the test compound are prepared as described above. […] The RFU of the mixture at time 0 is recorded at excitation wavelength 355 nm and emission wavelength 460 nm, after brief mixing on a plate shaker. […] The RFU at the end of incubation is recorded with the same excitation and emission settings used at time 0. […]

Test [2] addresses T2, BACE1 (Homo sapiens, UniProt P56817).
T2 construct: endogenous in cells; host or cells: SH-SY5Y (ATCC CRL2266) stably expressing human APP695Wt
The experiment in a line: SH-SY5YAPP695Wt Whole Cell Assay (Abeta ELISA). It is filed as cell-based. To be noted: SH-SY5Y cells stably expressing human APP695Wt, 24 hours incubation, n=6. As to the method: as §1
The routine whole cell assay for the measurement of inhibition of BACE1 activity utilizes the human neuroblastoma cell line SH-SY5Y (ATCC Accession No. CRL2266) stably expressing a human APP695Wt cDNA. Cells are routinely used up to passage number 6 and then discarded.
SH-SY5YAPP695Wt cells are plated in 96 well tissue culture plates at 5.0×10^4 cells/well in 200 μL culture media (50% MEM/EBSS and Ham's F12, 1× each sodium pyruvate, non-essential amino acids and NaHCO3 containing 10% FBS). The following day, media is removed from the cells, fresh media added then incubated at 37° C. for 24 hours in the presence/absence of test compound at the desired concentration range.
At the end of the incubation, conditioned media are analyzed for evidence of beta-secretase activity by analysis of Abeta peptides 1-40 and 1-42 by specific sandwich ELISAs. […]
For orientation: In an ELISA, binding on a coated surface is turned into a signal by an enzyme label.

Each structure is given as a SMILES string. Read-outs that look alike come from different tables or passages of the source.

T2 sequence (P56817 46-501): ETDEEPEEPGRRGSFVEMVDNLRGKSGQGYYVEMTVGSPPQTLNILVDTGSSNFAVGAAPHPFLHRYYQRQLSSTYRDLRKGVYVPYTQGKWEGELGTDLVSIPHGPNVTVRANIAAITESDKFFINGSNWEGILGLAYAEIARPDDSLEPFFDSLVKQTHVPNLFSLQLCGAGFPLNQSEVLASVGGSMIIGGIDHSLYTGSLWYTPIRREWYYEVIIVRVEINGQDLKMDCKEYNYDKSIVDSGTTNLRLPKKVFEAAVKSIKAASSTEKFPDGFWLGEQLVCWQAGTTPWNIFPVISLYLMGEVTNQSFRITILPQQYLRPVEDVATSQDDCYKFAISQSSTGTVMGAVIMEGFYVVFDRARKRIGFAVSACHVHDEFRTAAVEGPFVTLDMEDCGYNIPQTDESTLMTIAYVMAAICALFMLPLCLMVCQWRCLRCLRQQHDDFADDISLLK
T1 sequence (P56817 22-460): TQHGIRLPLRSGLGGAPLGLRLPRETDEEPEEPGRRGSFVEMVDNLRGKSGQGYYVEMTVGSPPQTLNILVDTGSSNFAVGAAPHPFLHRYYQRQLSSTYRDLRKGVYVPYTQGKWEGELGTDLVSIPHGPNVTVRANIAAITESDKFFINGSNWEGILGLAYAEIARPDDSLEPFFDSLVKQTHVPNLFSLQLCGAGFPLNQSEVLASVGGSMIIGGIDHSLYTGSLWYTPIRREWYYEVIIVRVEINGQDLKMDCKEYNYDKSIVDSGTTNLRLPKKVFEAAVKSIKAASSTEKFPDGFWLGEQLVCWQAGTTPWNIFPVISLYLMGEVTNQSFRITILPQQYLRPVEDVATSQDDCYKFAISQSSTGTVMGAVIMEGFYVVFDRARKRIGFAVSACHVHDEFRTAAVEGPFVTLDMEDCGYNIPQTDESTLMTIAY

For `CC(F)(F)[C@H]1C[C@H]2CSC(N)=N[C@@]2(c2cc(NC(=O)c3ccc(C#N)cn3)ccc2F)CO1` [Example 1, N-[3-[(4aR,6R,8aS)-2-Amino-6-(1,1-difluoroethyl)-4a,5,6,8-tetrahydro-4H-pyrano[3,4-d][1,3]thiazin-8a-yl]-4-fluoro-phenyl]-5-cyano-pyridine-2-carboxamide], the IC50 in test [1] was 263 pM; in test [2] (Abeta 1-40 in conditioned media, mean ± standard deviation of the mean (0.0104), read-out: IC50 for SH-SY5YAPP695Wt A-beta (1-40) ELISA), 26 pM; in test [2] (Abeta 1-42 in conditioned media, mean ± standard deviation of the mean (0.0187), read-out: IC50 for SH-SY5YAPP695Wt A-beta (1-42) ELISA), 31.3 pM.
